# Experimental data published in patent publication US20190380978A1, “SOLID ORAL DOSAGE FORMS OF 2R,6R-HYDROXYNORKETAMINE OR DERIVATIVES THEREOF” (priority 2016, published 2019).
# Assays:
# [1] = molecular target: CYP2D6 (Homo sapiens, UniProt P10635); test: CYP inhibition assay, CYP2D6; assay type: in vitro ADME
# Source text: (§1) Cytochrome P450s (CYPs) are a family of enzymes that play a primary role in the metabolism of a wide variety of drugs. 2R,6R-hydroxynorketamine was investigated for its potential to inhibit the action of 7 key CYP enzymes using an inhibition assay measuring reduction in the formation of metabolites compared to control.
# [2] = tested on: plasma binding proteins; test: fraction unbound in 100% plasma, mouse; assay type: in vitro ADME
# Source text: (§2) While the risk of DDIs due to displacement from plasma binding proteins (PPBs) is relatively low, it should be considered for drugs which display a high proportion PPB (fraction unbound (fu)<1%).
# (§3) The fu was investigated for 2R,6R-hydroxynorketamine using a 100% plasma from 4 test species.
# [3] = molecular target: T1, CYP1A2 (Homo sapiens, UniProt P05177); test: CYP inhibition assay, CYP1A2; assay type: in vitro ADME
# T1 sequence (P05177 1-516): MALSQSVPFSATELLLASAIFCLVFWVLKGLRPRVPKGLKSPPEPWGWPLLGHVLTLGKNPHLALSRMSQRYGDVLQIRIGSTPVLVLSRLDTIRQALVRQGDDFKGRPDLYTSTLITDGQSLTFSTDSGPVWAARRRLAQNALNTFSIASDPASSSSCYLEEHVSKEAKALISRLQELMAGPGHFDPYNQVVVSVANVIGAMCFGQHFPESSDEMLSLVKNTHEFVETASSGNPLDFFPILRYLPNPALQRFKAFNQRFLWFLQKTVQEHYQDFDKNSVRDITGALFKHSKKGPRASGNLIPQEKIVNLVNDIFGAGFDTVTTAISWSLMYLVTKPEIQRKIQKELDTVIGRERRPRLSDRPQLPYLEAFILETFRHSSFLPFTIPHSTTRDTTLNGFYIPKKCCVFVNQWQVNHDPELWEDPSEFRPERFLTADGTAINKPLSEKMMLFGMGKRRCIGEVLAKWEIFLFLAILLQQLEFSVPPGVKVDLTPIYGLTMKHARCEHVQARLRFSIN
# Source text: as §1
# [4] = molecular target: T2, CYP2B6 (Homo sapiens, UniProt P20813); test: CYP inhibition assay, CYP2B6; assay type: in vitro ADME
# T2 sequence (P20813 1-491): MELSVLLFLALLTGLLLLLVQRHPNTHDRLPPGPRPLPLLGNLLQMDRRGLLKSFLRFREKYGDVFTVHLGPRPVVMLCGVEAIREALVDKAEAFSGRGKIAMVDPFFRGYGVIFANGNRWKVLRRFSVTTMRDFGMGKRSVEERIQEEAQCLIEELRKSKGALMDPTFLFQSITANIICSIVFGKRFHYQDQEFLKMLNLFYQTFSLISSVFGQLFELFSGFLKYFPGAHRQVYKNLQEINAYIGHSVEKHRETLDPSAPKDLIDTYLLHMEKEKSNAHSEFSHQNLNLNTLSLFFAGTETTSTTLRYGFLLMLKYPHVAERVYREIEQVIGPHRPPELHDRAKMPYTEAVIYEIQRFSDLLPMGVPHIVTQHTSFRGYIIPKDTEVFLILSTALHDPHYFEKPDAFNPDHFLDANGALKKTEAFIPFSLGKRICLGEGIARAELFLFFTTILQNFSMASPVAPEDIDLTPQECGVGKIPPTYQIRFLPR
# Source text: as §1
# [5] = molecular target: T3, 5-HT2C (Homo sapiens, UniProt P28335); test: binding to 5-HT2C receptor
# T3 sequence (P28335 33-458): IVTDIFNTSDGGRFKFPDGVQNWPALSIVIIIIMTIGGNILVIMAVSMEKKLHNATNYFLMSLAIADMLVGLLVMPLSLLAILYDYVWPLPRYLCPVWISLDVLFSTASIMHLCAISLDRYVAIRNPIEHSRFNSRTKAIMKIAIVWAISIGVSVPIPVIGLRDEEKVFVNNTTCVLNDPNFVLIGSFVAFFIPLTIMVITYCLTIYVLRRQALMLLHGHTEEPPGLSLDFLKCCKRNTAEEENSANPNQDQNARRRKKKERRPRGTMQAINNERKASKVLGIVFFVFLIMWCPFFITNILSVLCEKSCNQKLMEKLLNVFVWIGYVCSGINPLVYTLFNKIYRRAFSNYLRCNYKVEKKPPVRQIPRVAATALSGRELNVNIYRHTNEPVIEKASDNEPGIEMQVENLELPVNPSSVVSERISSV
# Source text: (§4) 2R,6R-hydroxynorketamine was investigated for binding to monoamine oxidases A and B, monoamine transporters, as well as a variety of 5HT receptors.
# [6] = DSC analysis of compatibility with diluents and capsule shells
# [7] = molecular target: norepinephrine transporter (Homo sapiens, UniProt P23975); test: binding to norepinephrine transporter
# Source text: as §4
# [8] = molecular target: MAO-A (Homo sapiens, UniProt P21397); test: binding to monoamine oxidase A
# Source text: as §4
# [9] = molecular target: 5-HT1B (Homo sapiens, UniProt P28222); test: binding to 5-HT1B receptor
# Source text: as §4
# [10] = metabolite profiling; assay type: in vitro ADME; settings: hepatocyte data with metabolite profiling
# Experimental: (§5) 2R,6R-hydroxynorketamine was investigated using an in vitro hepatocyte stability assay, during which 2R,6R-hydroxynorketamine was incubated with cryopreserved hepatocytes from 3 test species.
# [11] = tested on: plasma binding proteins; test: fraction unbound in 100% plasma, human; assay type: in vitro ADME
# Source text: as §2, §3
# [12] = tested on: plasma binding proteins; test: fraction unbound in 100% plasma, dog; assay type: in vitro ADME
# Source text: as §2, §3
# [13] = molecular target: 5-HT transporter (Homo sapiens, UniProt P31645); test: binding to 5-HT transporter
# Source text: as §4
# [14] = in vitro hepatocyte stability assay, rat; assay type: in vitro ADME; settings: cryopreserved hepatocytes
# Experimental: as §5
# Chain of 5-HT1B (P28222 whole entry, species assumed): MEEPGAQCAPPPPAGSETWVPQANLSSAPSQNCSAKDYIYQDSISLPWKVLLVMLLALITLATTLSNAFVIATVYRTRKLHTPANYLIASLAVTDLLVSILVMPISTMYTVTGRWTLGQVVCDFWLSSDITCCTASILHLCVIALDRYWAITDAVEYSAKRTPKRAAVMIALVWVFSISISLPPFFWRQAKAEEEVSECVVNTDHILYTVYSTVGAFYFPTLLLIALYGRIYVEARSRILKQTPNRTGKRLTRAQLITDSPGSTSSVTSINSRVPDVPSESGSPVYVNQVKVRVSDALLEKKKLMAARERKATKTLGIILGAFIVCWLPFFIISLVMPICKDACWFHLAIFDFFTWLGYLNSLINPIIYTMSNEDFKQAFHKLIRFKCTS
# Chain of CYP2D6 (P10635 whole entry): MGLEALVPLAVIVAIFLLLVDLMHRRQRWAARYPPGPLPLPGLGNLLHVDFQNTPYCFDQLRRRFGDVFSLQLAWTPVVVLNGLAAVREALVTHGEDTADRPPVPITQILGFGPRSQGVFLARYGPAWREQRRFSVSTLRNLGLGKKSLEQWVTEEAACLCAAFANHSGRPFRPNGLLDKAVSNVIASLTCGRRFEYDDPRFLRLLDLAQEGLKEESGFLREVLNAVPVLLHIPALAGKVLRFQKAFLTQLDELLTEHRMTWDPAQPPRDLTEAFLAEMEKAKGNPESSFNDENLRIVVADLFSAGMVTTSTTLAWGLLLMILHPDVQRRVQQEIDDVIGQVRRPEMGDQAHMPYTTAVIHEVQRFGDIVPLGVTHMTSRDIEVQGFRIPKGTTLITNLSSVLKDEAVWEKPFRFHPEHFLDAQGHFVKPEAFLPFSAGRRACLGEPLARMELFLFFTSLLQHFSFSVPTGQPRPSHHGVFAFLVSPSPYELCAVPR
# Chain of norepinephrine transporter (P23975 whole entry, species assumed): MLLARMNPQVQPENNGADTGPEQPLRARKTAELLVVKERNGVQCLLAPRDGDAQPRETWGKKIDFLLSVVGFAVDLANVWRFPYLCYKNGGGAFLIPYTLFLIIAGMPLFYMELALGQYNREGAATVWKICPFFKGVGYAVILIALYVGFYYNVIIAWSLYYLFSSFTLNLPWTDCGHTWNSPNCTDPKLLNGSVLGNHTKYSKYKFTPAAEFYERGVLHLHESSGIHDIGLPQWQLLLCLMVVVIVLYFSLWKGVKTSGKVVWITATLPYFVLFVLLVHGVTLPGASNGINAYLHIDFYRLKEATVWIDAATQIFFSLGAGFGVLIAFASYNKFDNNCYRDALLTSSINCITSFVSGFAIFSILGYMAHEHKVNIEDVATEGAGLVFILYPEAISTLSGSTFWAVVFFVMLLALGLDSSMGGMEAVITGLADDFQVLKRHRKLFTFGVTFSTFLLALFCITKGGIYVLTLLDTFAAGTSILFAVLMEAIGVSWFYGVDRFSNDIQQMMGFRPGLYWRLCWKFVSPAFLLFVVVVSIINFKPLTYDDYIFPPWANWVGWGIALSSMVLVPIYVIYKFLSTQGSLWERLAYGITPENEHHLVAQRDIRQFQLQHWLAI
# Chain of 5-HT transporter (P31645 whole entry, species assumed): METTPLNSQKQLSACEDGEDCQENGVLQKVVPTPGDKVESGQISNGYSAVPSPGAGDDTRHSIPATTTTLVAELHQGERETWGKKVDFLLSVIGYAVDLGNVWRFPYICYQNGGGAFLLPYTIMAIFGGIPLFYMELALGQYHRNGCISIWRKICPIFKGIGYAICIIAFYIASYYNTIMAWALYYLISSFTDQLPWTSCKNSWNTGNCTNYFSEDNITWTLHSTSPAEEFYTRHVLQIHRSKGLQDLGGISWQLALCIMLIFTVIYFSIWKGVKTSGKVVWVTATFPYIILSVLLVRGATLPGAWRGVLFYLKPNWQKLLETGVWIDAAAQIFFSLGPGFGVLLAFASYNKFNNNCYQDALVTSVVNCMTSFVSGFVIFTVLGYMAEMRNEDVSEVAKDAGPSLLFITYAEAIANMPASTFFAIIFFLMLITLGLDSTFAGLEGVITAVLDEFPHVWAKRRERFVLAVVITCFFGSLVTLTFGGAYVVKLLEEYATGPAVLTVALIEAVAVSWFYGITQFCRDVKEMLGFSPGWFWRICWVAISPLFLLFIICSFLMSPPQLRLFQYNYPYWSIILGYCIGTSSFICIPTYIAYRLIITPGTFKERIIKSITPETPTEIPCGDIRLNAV
# Chain of MAO-A (P21397 whole entry, species assumed): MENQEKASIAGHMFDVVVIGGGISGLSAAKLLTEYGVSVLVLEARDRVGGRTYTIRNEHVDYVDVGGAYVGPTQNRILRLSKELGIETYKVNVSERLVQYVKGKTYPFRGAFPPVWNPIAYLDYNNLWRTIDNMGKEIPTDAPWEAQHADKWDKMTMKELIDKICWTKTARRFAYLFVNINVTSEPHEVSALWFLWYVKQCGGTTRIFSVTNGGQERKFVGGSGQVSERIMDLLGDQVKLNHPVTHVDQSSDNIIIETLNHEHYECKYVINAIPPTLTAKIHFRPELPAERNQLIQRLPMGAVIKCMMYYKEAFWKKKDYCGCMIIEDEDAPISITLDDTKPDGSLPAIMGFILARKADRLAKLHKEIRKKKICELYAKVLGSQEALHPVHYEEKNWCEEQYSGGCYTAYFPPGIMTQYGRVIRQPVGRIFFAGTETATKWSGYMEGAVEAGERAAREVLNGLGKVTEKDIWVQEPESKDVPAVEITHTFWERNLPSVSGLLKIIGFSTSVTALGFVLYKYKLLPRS
compound,measurement,setting,value
"N[C@@]1(c2ccccc2Cl)CCC[C@@H](O)C1=O [2R,6R-hydroxynorketamine]",inhibition at 0.4 µM,[1]; 0.4 μM,3.16%
same,inhibition at 1 µM,[1]; 1 μM,6.65%
same,inhibition at 4 µM,[1]; 4 μM,11.5%
same,inhibition at 10 µM,[1]; 10 μM,9.41%
same,inhibition at 40 µM,[1]; 40 μM,11.2%
same,inhibition at 100 µM,[1]; 100 μM,5.73%
same,"plasma protein binding (PPB), words",[2],low PPB
same,IC50,[3],~100 µM
same,inhibition at 0.4 µM,[3]; 0.4 μM,7.55%
same,inhibition at 1 µM,[3]; 1 μM,8.8%
same,inhibition at 4 µM,[3]; 4 μM,11.7%
same,inhibition at 10 µM,[3]; 10 μM,19.3%
same,inhibition at 40 µM,[3]; 40 μM,24.8%
same,inhibition at 100 µM,[3]; 100 μM,48.6%
same,inhibition of CYP2B6,[4],did not inhibit
same,inhibition at 0.4 µM,"[4]; human, 0.4 μM",6.03%
same,inhibition at 1 µM,"[4]; human, 1 μM",10.1%
same,inhibition at 4 µM,"[4]; human, 4 μM",10.6%
same,inhibition at 10 µM,"[4]; human, 10 μM",14.4%
same,inhibition at 40 µM,"[4]; human, 40 μM",14.8%
same,inhibition at 100 µM,"[4]; human, 100 μM",16.7%
same,% Inhibition of Control Specific Binding,[5],10%
same,% of Control Specific Binding,[5],91.1%
same,binding to 5HT2C receptor subtype,[5],does not bind
same,compatibility with hydroxypropyl methylcellulose capsule shells,[6],compatibility
same,compatibility with dicalcium phosphate,[6]; DSC,compatibility
same,compatibility with microcrystalline cellulose,[6]; DSC,compatibility
same,compatibility with lactose monohydrate,"[6]; DSC, binary mix, 1:2 ratio of API:Excipient",incompatible
same,% Inhibition of Control Specific Binding,[7],−16%
same,% of Control Specific Binding,[7],117.6%
same,% Inhibition of Control Specific Binding,[8],−5%
same,% of Control Specific Binding,[8],97.7%
same,% Inhibition of Control Specific Binding,[9],−2%
same,% of Control Specific Binding,[9],102.7%
same,binding to 5HT1B receptor subtype,[9],does not bind
same,phase I metabolism by CYP enzymes,[10],does not undergo phase I metabolism
same,route of metabolism and excretion,[10],glucuronidated and excreted via the renal system
same,"plasma protein binding (PPB), words",[11],low PPB
same,"plasma protein binding (PPB), words",[12],low PPB
same,% Inhibition of Control Specific Binding,[13],2%
same,% of Control Specific Binding,[13],102.0%
same,half-life,[14],25.1 min
same,hepatocyte CLint,[14],55.2 µL/min/1e6 cells
